{"source": "paper PMC12134986", "about": "“Synthesis, characterization and antidiabetic studies of novel amantadine-derived Schiff base (AHB) and its Zn(II), Co(II), Cr(III) and VO(IV) complexes” (RSC Advances, 2025)", "key": {"α-glucosidase": {"tested_on": "α-glucosidase", "experiment": "In vitro α-glucosidase inhibitory activity (pNPG substrate, absorbance at 405 nm)", "format": "biochemical", "method": "After the pre-incubation, pNPG (substrate, 30 μL, 5 mM) prepared in 0.1 M phosphate buffer (pH 6.8) was poured into the wells of the microplate, which were then incubated at 37 °C for 20 minutes. […] For inhibition studies, various concentrations of test samples were utilized. […] All data were presented as means ± SD values, obtained from a microplate reader for all experiments."}, "α-amylase": {"tested_on": "α-amylase", "experiment": "In vitro α-amylase inhibition activity (starch-iodine, 580 nm)", "format": "biochemical", "quoted_text": "In vitro α-amylase inhibition studies were performed following a reported methodology with slight modification.[20] First, to prepare our reaction mixture, 10 μL of enzyme solution (0.1 mg mL^−1) was combined with a 10 mM phosphate buffer at pH 6.9 (6 mM NaCl), and then mixed with the various concentrations of the tested sample. The resultant reaction mixtures placed in a microplate were incubated for 30 minutes at 37 °C. After the incubation period, 40 μL of starch solution (1%) was added; subsequently, this assay plate was incubated at 37 °C for 10 minutes. Finally, the reaction was terminated by adding 20 μL of 1.0 M HCl to the prepared solution, followed by the addition of 75 μL of iodine solution. Quantification was performed spectrophotometrically at 580 nm. […] Inhibition activity (%) was measured using eqn (1).1 [drawing 1] Here, the control sample excluded the α-amylase and the tested sample. The inhibitor concentration used to inhibit α-amylase activity (50%) under assay was determined as IC50 values. The findings were depicted as means ± SD values, obtained from microplate readers."}}, "data": [{"substance": "(E)-2-((adamantan-2-ylimino)methyl)-6-bromo-4-chlorophenol [AHB]", "values": [{"measurement": "α-glucosidase inhibition, result in words", "setting": "α-glucosidase", "result": "relatively inactive"}, {"measurement": "α-amylase inhibition, result in words", "setting": "α-amylase", "result": "relatively inactive"}]}]}
